Values joined by “and” are separate entries in the source; they are usually repeats but may differ in a detail not shown here. Equal values may be shown once.
Assays:
[1] = test system: SARS-CoV-2 S-mediated membrane fusion in the presence of TMPRSS2
Vero E6 cells = test: Cell viability, Cell-Titer Glo (ATP levels), Vero E6; type: cell-based; conditions: 48 h, Fig. 6C
Experimental: (§1) The toxicity of the compounds was evaluated with Cell-Titer Glo (Promega) following the manufacturer’s indications. Briefly, cells were seeded (~ 1 × 10^4 cells/plate) in an opaque white 96-well plate and treated with the appropriate compound at the indicated concentration for 48 h. Next, 100 µl of CellTiter-Glo® reagent was added and let the luminescence signal stabilizes for 10 min. The luminescence was recorded on a VictorX multi-plate reader (Perking Elmer, Waltham, MA, USA).
(§2) Fig. 6 Toxicity of hit compounds. A, B The toxicity in Hek 293T and Vero E6 cells (A and B, respectively) was analyzed after incubating the compounds at the indicated concentration for 48 h. Toxicity was analyzed by measuring ATP levels using the Cell-Titer Glo assay (Promega) following the manufacturer’s indications. Dots represent the average of at least three independent experiments. C The CC10, CC50, and CC90 values were calculated with the data shown in panels A and B TEXT PRINTED IN THE PICTURE: (C) Latanoprost: Hek293T CC10 (μM): 16.2; Hek293T CC50 (μM): 63.9; Hek293T CC90 (μM): 270; Vero E6 CC10 (μM): 76.9; Vero E6 CC50 (μM): 124; Vero E6 CC90 (μM): 171 | (C) Diperodon: Hek293T CC10 (μM): 14.2; Hek293T CC50 (μM): 41; Hek293T CC90 (μM): 98.3; Vero E6 CC10 (μM): 24; Vero E6 CC50 (μM): 88; Vero E6 CC90 (μM): 153 | (C) Ethynylestradiol: Hek293T CC10 (μM): 11.8; Hek293T CC50 (μM): 49.9; Hek293T CC90 (μM): 169.9; Vero E6 CC10 (μM): 13.6; Vero E6 CC50 (μM): 96.6; Vero E6 CC90 (μM): 224 | (C) Simvastatin: Hek293T CC10 (μM): 8.0; Hek293T CC50 (μM): 34.2; Hek293T CC90 (μM): 125.8; Vero E6 CC10 (μM): 3.11; Vero E6 CC50 (μM): 6.02; Vero E6 CC90 (μM): 61.2 | (C) Rabeprazol: Hek293T CC10 (μM): 14.3; Hek293T CC50 (μM): 38.1; Hek293T CC90 (μM): 83.6; Vero E6 CC10 (μM): 51.6; Vero E6 CC50 (μM): 122.8; Vero E6 CC90 (μM): 194 | (C) Ethaverine: Hek293T CC10 (μM): 9.7; Hek293T CC50 (μM): 43.8; Hek293T CC90 (μM): 120.7; Vero E6 CC10 (μM): 45; Vero E6 CC50 (μM): 119.8; Vero E6 CC90 (μM): 194.7

[2] = as above; type: cell-based; conditions: African green monkey, Fig. 6C; for CC50 / CC90: 48 h
Experimental: as §1, §2

Hek 293T cells [3] = test: Cell viability, Cell-Titer Glo (ATP levels), Hek 293T; type: cell-based; conditions: 48 h, Fig. 6C
Experimental: as §1, §2

[4] = as above; type: cell-based; conditions: human; for CC50 / CC90: 48 h
Experimental: as §1, §2

[5] = test system: SARS-CoV-2 S-mediated membrane fusion
IAV/WSN/33 = type: cell-based, Influenza A virus
SARS-CoV-2 = type: cell-based
[6] = test system: Nipah virus membrane fusion; type: cell-based; conditions: Hek 293T, NiV F and G, 48 h
Hek 293T cells [7] = test: Cell viability, Cell-Titer Glo (ATP levels), Hek 293T; type: cell-based; conditions: Hek 293T transfected with TMPRSS2 or eYFP, Fig. S2
[8] = Table 1, Hek 293T, read-out: CC50
[9] = Fig. 6C, read-out: Hek293T CC50
[10] = Fig. 6C, read-out: Hek293T CC90

Compound	Activity index (Fusion % at CC50/CC50), TMPRSS2 [1]	Fusion % at CC50, TMPRSS2 [1]	Vero E6 CC10 (Vero E6 cells)	CC50 [2]	CC90 [2]	Hek293T CC10 (Hek 293T cells [3])	CC50 [4, 8]	CC50 [4, 9]	CC90 [4, 10]	Activity index (Fusion % at CC50/CC50), NO TMPRSS2 [5]	Fusion % at CC50, NO TMPRSS2 [5]	Z-score [5]	also measured
O=C(Nc1ccccc1)OCC(CN1CCCCC1)OC(=O)Nc1ccccc1 (stereo not shown) [Diperodon]	3,39	138,77%	24 µM	88 µM	153 µM	14.2 µM	41 µM	41 µM	98.3 µM	3,03	123,98%	–	–
CCOc1ccc(Cc2nccc3cc(OCC)c(OCC)cc23)cc1OCC [Ethaverine]	9,56	419,22%	45 µM	120 µM	195 µM	9.7 µM	43.8 µM	43.8 µM	121 µM	2,86	125,39%	–	effect on IAV titers (in words) (IAV/WSN/33): did not increase viral titers; effect on SARS-CoV-2 viral titers (in words) (SARS-CoV-2): did not increase or accelerate the growth; effect on NiV-induced membrane fusion (in words) [6]: enhance viral-mediated membrane fusion in a mild dose-dependent manner
C#C[C@]1(O)CC[C@H]2[C@@H]3CCc4cc(O)ccc4[C@H]3CC[C@@]21C [Ethynylestradiol]	6,27	312,60%	13.6 µM	96.6 µM	224 µM	11.8 µM	49.9 µM	49.9 µM	170 µM	3,25	162,00%	–	toxicity in the presence of TMPRSS2 (in words) (Hek 293T cells [7]): compound toxicity was not affected by the presence of the cellular protease; effect on IAV titers (in words) (IAV/WSN/33): increases IAV titers by approximately one log; SARS-CoV-2 titer, Average (SARS-CoV-2): 2.6x10^6 pfu/mL and 3.6x10^6 pfu/mL and 5.0x10^6 pfu/mL; effect on SARS-CoV-2 viral titers (in words) (SARS-CoV-2): increased viral titers; effect on NiV-induced membrane fusion (in words) [6]: enhance viral-mediated membrane fusion in a mild dose-dependent manner; increase in viral-induced membrane fusion (in words) [5]: stronger inducers
CC(C)OC(=O)CCC/C=C\C[C@@H]1[C@@H](CC[C@@H](O)CCc2ccccc2)[C@H](O)C[C@@H]1O [Latanoprost]	2,39	152,75%	76.9 µM	124 µM	171 µM	16.2 µM	63.9 µM	63.9 µM	270 µM	1,11	70,98%	–	increase in viral-induced membrane fusion (in words) [5]: stronger inducers
COCCCOc1ccnc(C[S+]([O-])c2nc3ccccc3[nH]2)c1C (stereo not shown) [Rabeprazol]	6,39	243,51%	51.6 µM	123 µM	194 µM	14.3 µM	38.1 µM	38.1 µM	83.6 µM	4,70	179,16%	–	effect on IAV titers (in words) (IAV/WSN/33): did not increase viral titers; SARS-CoV-2 titer, Average (SARS-CoV-2): 3.2x10^6 pfu/mL and 4.2x10^6 pfu/mL and 6.1x10^6 pfu/mL; effect on SARS-CoV-2 viral titers (in words) (SARS-CoV-2): increased viral titers; effect on NiV-induced membrane fusion (in words) [6]: enhance viral-mediated membrane fusion in a mild dose-dependent manner
CCC(C)(C)C(=O)O[C@H]1C[C@@H](C)C=C2C=C[C@H](C)[C@H](CC[C@@H]3C[C@@H](O)CC(=O)O3)[C@H]21 [Simvastatin]	4,79	163,57%	3.11 µM	–	–	8.0 µM	–	–	–	5,03	172,00%	1,72	CC50 (Vero E6 cells): 6.02 µM; CC50 at 48 h [2]: ~6 µM; CC90 at 48 h [2]: 61.2 µM; CC50 at 48 h [4, 9]: 34.2 µM; CC90 at 48 h [4, 10]: 126 µM; CC50 at 48 h [4, 8]: 34.2 µM; increase in viral-induced membrane fusion (in words) [5]: stronger inducers
C=C(NC(=O)C(=C)NC(=O)c1csc(C2=N[C@@H]3c4csc(n4)[C@H]4NC(=O)c5csc(n5)[C@H]([C@](C)(O)[C@@H](C)O)NC(=O)[C@H]5CSC(=N5)/C(=C/C)NC(=O)[C@H]([C@@H](C)O)NC(=O)c5csc(n5)[C@]3(CC2)NC(=O)[C@H](C)NC(=O)C(=C)NC(=O)[C@H](C)NC(=O)[C@H]([C@@H](C)CC)N[C@@H]2C=Cc3c([C@H](C)O)cc(nc3[C@H]2O)C(=O)O[C@@H]4C)n1)C(N)=O [Thiostrepton]	–	–	–	–	–	–	–	–	–	–	–	5,52	–
O=C(O)Cc1cc(I)c(Oc2ccc(O)c(I)c2)c(I)c1 [Tiratricol, 3,3',5-triiodothyroacetic acid]	–	–	–	–	–	–	–	–	–	–	–	4,40	–
Cl.NC1CCN(c2nc3c(cc2F)c(=O)c(C(=O)O)cn3-c2ccc(F)cc2F)C1 (stereo not shown) [Tosufloxacin hydrochloride]	–	–	–	–	–	–	–	–	–	–	–	1,77	–
O=C(CCCCCCC(=O)Nc1ccccc1)NO [Vorinostat]	–	–	–	–	–	–	–	–	–	–	–	4,62	–
CCCOc1ccccc1-c1nc2nn[nH]c2c(=O)[nH]1 [Zaprinast]	–	–	–	–	–	–	–	–	–	–	–	1,64	–
O=P(O)(O)C(O)(Cn1ccnc1)P(=O)(O)O [Zoledronic acid hydrate]	–	–	–	–	–	–	–	–	–	–	–	2,27	–
Meclocycline sulfosalicylate	–	–	–	–	–	–	–	–	–	–	–	5,55	–
Tyloxapol	–	–	–	–	–	–	–	–	–	–	–	3,89	–

From paper PMC10206591, “Identification of small molecules capable of enhancing viral membrane fusion” (Virology Journal, 2023)
